# Experiments:
# Format in all cases: in vivo
# [1] = Sweetness comparison procedure against sucrose reference solutions, trained sensory evaluators; conditions: determined at approximately 8% SEV
# Description: The S,S stereoisomer of monatin is approximately 50-200 times sweeter than sucrose by weight. The R,R stereoisomer of monatin is approximately 2000-2400 times sweeter than sucrose by weight. The sweetness of the monatin is calculated using experienced sensory evaluators in a sweetness comparison procedure, where a test sweetener solution is matched for sweetness intensity against one of a series of reference solutions. The solutions may be prepared, for example, using a buffer comprising 0.16% (w/v) citric acid and 0.02% (w/v) sodium citrate at ˜pH 3.0.
# Specifically, one may assess sweetness of a sweetener relative to sucrose by using a panel of trained sensory evaluators experienced in the sweetness estimation procedure. All samples (in same buffers) are served in duplicate at a temperature of 22° C. ±1° C. Sample solutions may be prepared, for example, using a buffer comprising 0.16% (w/v) citric acid and 0.02% (w/v) sodium citrate at ˜pH 3.0. Test solutions, coded with 3 digit random number codes, are presented individually to panelists, in random order. Sucrose reference standards, ranging from 2.0-10.0% (w/v) sucrose, increasing in steps of 0.5% (w/v) sucrose are also provided. Panelists are asked to estimate sweetness by comparing the sweetness of the test solution to the sucrose standards. This is carried out by taking 3 sips of the test solution, followed by a sip of water, followed by 3 sips of sucrose standard followed by a sip of water, etc. Panelists estimate the sweetness to one decimal place, e.g., 6.8, 8.5. A five minute rest period is imposed between evaluating the test solutions. Panelists are also asked to rinse well and eat a cracker to reduce any potential carry over effects.
# Sucrose equivalent value (SEV) (e.g., % sucrose), determined by the panel of trained sensory evaluators, is plotted as a function of monatin concentration to obtain a dose response curve. A polynomial curve fit is applied to the dose response curve and used to calculate the sweetness intensity or potency at a particular point, e.g., 8% SEV, by dividing the sucrose equivalent value (SEV) by the monatin concentration (e.g., % monatin). See e.g., FIG. 15 (R,R/S,S monatin dose response curve); FIG. 14 (R,R monatin dose response curve). The above-mentioned sweetness intensities for S,S and R,R monatin (i.e., approximately 50-200 times sweeter and approximately 2000-2400 times sweeter than sucrose by weight, respectively) were determined at approximately 8% SEV.
# [2] = Sensory evaluation of sweeteners in coffee and iced tea; conditions: 200 mL serving
# Description: Monatin sweetener formulations, comprising R,R monatin or R,R monatin/erythritol combinations, were assessed relative to other known sweeteners (aspartame and sucralose) in coffee and iced tea. The key sensory parameters assessed included sweetness quality, aftertaste, bitter taste and its aftertaste. Qualitative evaluation was carried out.
# Standard coffee was used in which to evaluate sweetener performance (Table 17).
# Sweeteners were added to coffee at the following concentrations:
# An ice tea formulation was developed to evaluate sweetener performance (Table 18).
# Sweeteners were added to tea at the following concentrations:
# The evaluation of these coffee and tea drinks was carried out by a panel (n=6) of experienced sensory evaluators who evaluated the coffee products on one tasting occasion and the tea products on a subsequent occasion.
# [3] = Sensory evaluation of soft drinks (lemon/lime, orangeade, cola)
# Description: Beverages (cola, lemon-lime and orange) were formulated and sweetened with aspartame, sucralose or R,R monatin. Qualitative evaluation was carried out.
# The term “throw” refers to dilution in water. For example, a throw of “1+4” means 1 part concentrate formulation to 4 parts water. Thus, if a concentrate formulation includes 0.021% wt/vol (i.e., 210 ppm) of R,R monatin, for example, a throw of 1+4 makes a diluted beverage containing 42 ppm (210 ppm/5) R,R monatin.
# Final ready-to-drink beverages (after throw) contained sweetener concentrations as follows:
# Evaluation of these soft drinks was carried out by a panel (n=6) of assessors who evaluated each set of drinks on separate tasting occasions.
# [4] = Time intensity profile in a soft drink system; conditions: 80 ppm monatin, 10.0% sucrose, 200 ppm sucralose, pH 3.2 model soft drink; for Intensity of Maximum Sweetness: scale 0-100
# Description: Solutions of 80 ppm monatin (racemic mix of monatin described in Example 14), 10.0% (w/v) sucrose and 200 ppm sucralose were prepared in the pH 3.2 model soft drink system described in Example 14. The time intensity profile of these solutions then was assessed using the following procedure. Six panelists were included in the study. These panelists were screened for their general sensory acuity and selected for their sensitivity to sweetness intensity and sweetness quality differences. All were experienced in methods of sweetener assessment and had received special training in time intensity evaluations. Training sessions were carried out initially to familiarize the panel with the method of evaluation and scoring the samples over time using a computerized data entry system.
# Samples of each solution (13 mL) were coded and presented individually to panelists, in random order. For each panelist, immediately after swallowing, the computer recorded timed intensity readings on the scale of 0-100 each second, up to 60 seconds. Each solution was evaluated in duplicate.
# [5] = Taste profiling of lemon/lime carbonates and colas; conditions: HFCS 10%, aspartame 500 ppm, sucralose 200 ppm, blends 30.8 ppm/5.0%; for Average Score: score 1, poor-5, good, sucrose 10%
# Description: Cola and lemon/lime beverages were prepared using the following formulations and sweetened with sucrose, HFCS (55% fructose), aspartame, sucralose, monatin (racemic mix described in Example 14), monatin/sucrose, or monatin/HFCS. One part of syrup was added to 5.5 parts carbonated water and evaluated.
# Assessments were carried out ‘double blind’ by a panel of trained tasters. The sucrose-sweetened product was identified as the control and all other products randomly coded. Panelists were asked to assess the randomly coded sample relative to the control for the following attributes:
# Panelists also were asked assign a score (1; poor-5; good) for the quality of the sweetener system. A summary of the comments generated together with the average score awarded is presented in Tables 12 and 13 for lemon/lime carbonates and colas, respectively. […] Blends of monatin/carbohydrate rated higher. In the cola, monatin was similar to aspartame.
# [6] = Taste profiling of monatin/carbohydrate blends
# Description: The quality of equisweet monatin/carbohydrate (50:50) blends then was assessed relative to sucrose by a small panel of trained assessors. This evaluation was carried out “double blind.” The sucrose-sweetened system was identified as the control and all other products randomly coded. Panelists were asked to assess the randomly coded sample relative to the control for the following attributes: Sweetness Profile: Onset, build and decay; Flavor Profile: Acidity, bitterness and other characteristics; Mouthfeel; and Aftertaste. Panelists also were asked to assign a score (1; poor-5; good) for the quality of the sweetener system. A summary of the comments made and scores given is presented as Table 10.
# [7] = cola, sucrose 10% (control), monatin 80 ppm
# [8] = lemon/lime carbonate, sucrose 10% (control), monatin 67 ppm
# [9] = lemon/lime carbonate, monatin 67 ppm
# [10] = equisweet monatin/carbohydrate (50:50) blends relative to sucrose control
SMILES,times sweeter than sucrose by weight [1],Area Under Curve [4] [unit × s],Rate of Decline [4] [unit/s],Rate of Onset [4] [unit/s],Time for Sweetness to Decline to Half Maximum Value [4] [s],Time to Half Maximum Sweetness [4] [s],Time to Maximum Sweetness [4] [s],Intensity of Maximum Sweetness [4] [unit],"Flavor Profile [5, 7]","Aftertaste [5, 8]","Flavor Profile [5, 8]","Average Score ([5]; cola, monatin 80 ppm)","Average Score [5, 9]",further results
"NC(CC(O)(Cc1c[nH]c2ccccc12)C(=O)O)C(=O)O (stereo not drawn) [R,R monatin, 2-hydroxy-2-(indol-3-ylmethyl)-4-aminoglutaric acid]",2000-2400 times,–,–,–,–,–,–,–,–,–,–,–,–,"times sweeter than sucrose by weight ([1]; listed as R,R): 2000-2400 times; times sweeter than sucrose by weight ([1]; listed as R,R stereoisomer): 2000-2400 times"
"NC(CC(O)(Cc1c[nH]c2ccccc12)C(=O)O)C(=O)O (stereo not drawn) [S,S monatin, 2-hydroxy-2-(indol-3-ylmethyl)-4-aminoglutaric acid]",50-200 times,–,–,–,–,–,–,–,–,–,–,–,–,"times sweeter than sucrose by weight ([1]; listed as S,S): 50-200 times; times sweeter than sucrose by weight ([1]; listed as S,S stereoisomer): 50-200 times"
"OC[C@H]1O[C@H](O[C@]2(CCl)O[C@H](CCl)[C@@H](O)[C@@H]2O)[C@H](O)[C@@H](O)[C@H]1Cl [Sucralose, sucralose]",–,119.7,2.1,16.0,33.1,2.6,8.0,64.6,"Sweet flavor, slightly",Slight licorice note,Zesty and refreshing,3.8,4.1,"Comments (sensory evaluation) ([2]; Coffee, aspartame 250 ppm, sucralose 82 ppm, R,R monatin 25 ppm + maltodextrin or erythritol (1 g, 0.5%)): Slow sweetness onset allows stronger; Comments (sensory evaluation) ([2]; Iced Tea, aspartame 450 ppm, sucralose 170 ppm, R,R monatin 40 ppm + maltodextrin or erythritol (1 g, 0.5%)): Delay in sweetness onset means first; Comments (sensory evaluation) ([3]; Cola, aspartame 550 ppm, sucralose 220 ppm, R,R monatin 45 ppm): Delay in sweetness onset means first; Comments (sensory evaluation) ([3]; Lemon/lime soft drink, aspartame 500 ppm, sucralose 200 ppm, R,R monatin 42 ppm): Slow sweetness onset allows stronger; Comments (sensory evaluation) ([3]; Orangeade, aspartame 550 ppm, sucralose 220 ppm, R,R monatin 45 ppm): Delay in sweetness onset means first; Aftertaste [5, 7]: Some sweetness; Mouthfeel [5, 7]: Slightly thinner than"
"OC[C@H]1O[C@@](CO)(O[C@H]2O[C@H](CO)[C@@H](O)[C@H](O)[C@H]2O)[C@@H](O)[C@@H]1O [Sucrose, sucrose]",–,116.9,2.3,17.9,24.9,2.3,8.0,64.1,"Sweet, rounded, warm",Slight bitterness and,"Soft, balanced",4.5,4.8,"Aftertaste [6, 10]: Slight lingering; Flavor Profile [6, 10]: Pleasant, citrus; Mouthfeel [6, 10]: Full, syrupy; Sweetness Profile [6, 10]: Fast onset and build; Average Score ([6]; score 1, poor-5, good, equisweet monatin/carbohydrate (50:50) blends, sucrose control): 4.0"
